# Assay results taken from ChEMBL document CHEMBL1240307, “A functional genomics approach to the mode of action of apratoxin A” (Nat Chem Biol, 2006).
# Experiments:
# HT-29 [1] = assay: Antitumor activity against human HT-29 cells assessed as upregulation of RASSF4 mRNA expression at 10 nM after 3 hrs relative to control; type: functional
# KM12 = assay: Cytotoxicity against human KM12 cells by sulforhodamine B assay; type: functional
# HT-29 [2] = assay: Antitumor activity against human HT-29 cells assessed as down-regulation of CDC25A mRNA expression at 2 nM after 12 hrs relative to control; type: functional
# A549 = assay: Cytotoxicity against human A549 cells by sulforhodamine B assay; type: functional
# EKVX = assay: Cytotoxicity against human EKVX cells by sulforhodamine B assay; type: functional
# HT-29 [3] = assay: Antitumor activity against human HT-29 cells assessed as down-regulation of TAL1 mRNA expression at 10 nM after 6 hrs relative to control; type: functional
# SN12C = assay: Cytotoxicity against human SN12C cells by sulforhodamine B assay; type: functional
# HT-29 [4] = assay: Antitumor activity against human HT-29 cells assessed as down-regulation of CCNE2 mRNA expression at 10 nM after 12 hrs relative to control; type: functional
# HT-29 [5] = assay: Antitumor activity against human HT-29 cells assessed as upregulation of HSPA1A mRNA expression at 10 nM after 12 hrs relative to control; type: functional
# HT-29 [6] = assay: Antitumor activity against human HT-29 cells assessed as upregulation of MGC4504 mRNA expression at 10 nM after 12 hrs relative to control; type: functional
# HT-29 [7] = assay: Antitumor activity against human HT-29 cells assessed as down-regulation of RAB11B mRNA expression at 10 nM after 6 hrs relative to control; type: functional
# HOP-92 = assay: Cytotoxicity against human HOP92 cells by sulforhodamine B assay; type: functional
# U2OS [8] = assay: Cell cycle arrest in human U2OS cells assessed as accumulation at S phase at 50 nM after 48 hrs by FACS analysis (reference value: 37.3%); type: functional
# T47D = assay: Cytotoxicity against human T47D cells by sulforhodamine B assay; type: functional
# RXF 393 = assay: Cytotoxicity against human RXF393 cells by sulforhodamine B assay; type: functional
# HT-29 [9] = assay: Antitumor activity against human HT-29 cells assessed as down-regulation of RAB11B mRNA expression at 10 nM after 12 hrs relative to control; type: functional
# [10] = Cytotoxicity against human […] cells by sulforhodamine B assay; type: functional
# HT-29 [11] = assay: Antitumor activity against human HT-29 cells assessed as down-regulation of CDC25A mRNA expression at 2 nM after 6 hrs relative to control; type: functional
# HT-29 [12] = assay: Antitumor activity against human HT-29 cells assessed as down-regulation of RAB11B mRNA expression at 2 nM after 6 hrs relative to control; type: functional
# SK-MEL-28 = assay: Cytotoxicity against human SK-MEL-28 cells by sulforhodamine B assay; type: functional
# NCI-H23 = assay: Cytotoxicity against human NCI-H23 cells by sulforhodamine B assay; type: functional
# UACC-62 = assay: Cytotoxicity against human UACC62 cells by sulforhodamine B assay; type: functional
# HT-29 [13] = assay: Antitumor activity against human HT-29 cells assessed as upregulation of KCNK10 mRNA expression at 10 nM after 6 hrs relative to control; type: functional
# U2OS [14] = assay: Cell cycle arrest in human U2OS cells overexpressing mouse Fgfr1 assessed as accumulation at S phase at 15 nM after 48 hrs by CMV-GFP reporter assay method (reference value: 33%); type: functional
# U2OS [15] = assay: Antiproliferative activity against human U2OS cells expressing constitutively active Stat3 mutant after 48 hrs by CMV-GFP reporter assay method; type: functional, cell-based
# HT-29 [16] = assay: Cytotoxicity against human HT-29 cells by sulforhodamine B assay; type: functional
# NCI/ADR-RES = assay: Cytotoxicity against human NCI/ADR-RES cells by sulforhodamine B assay; type: functional
# HT-29 [17] = assay: Antitumor activity against human HT-29 cells assessed as down-regulation of GTSE1 mRNA expression at 2 nM after 3 hrs relative to control; type: functional
# HT-29 [18] = assay: Antitumor activity against human HT-29 cells assessed as down-regulation of RAB11B mRNA expression at 2 nM after 3 hrs relative to control; type: functional
# HT-29 [19] = assay: Antitumor activity against human HT-29 cells assessed as upregulation of DDIT4 mRNA expression at 2 nM after 12 hrs relative to control; type: functional
# HT-29 [20] = assay: Antitumor activity against human HT-29 cells assessed as down-regulation of GTSE1 mRNA expression at 2 nM after 12 hrs relative to control; type: functional
# [21] = read-out: LC50 (the source's name)
smiles,measurement,setting,value
CC[C@H](C)[C@H]1C(=O)N2CCC[C@H]2C(=O)O[C@H](C(C)(C)C)C[C@@H](C)C[C@H](O)[C@H](C)C2=N[C@@H](/C=C(\C)C(=O)N[C@@H](Cc3ccc(OC)cc3)C(=O)N(C)[C@@H](C)C(=O)N1C)CS2 [APRATOXIN A],fold change (FC),HT-29 [1],<=2
same,GI50,KM12,3.52 nM
same,fold change (FC),HT-29 [2],-2.2
same,GI50,A549,5.38 nM
same,GI50,EKVX,7.56 nM
same,fold change (FC),HT-29 [3],<=2
same,GI50,SN12C,3.94 nM
same,fold change (FC),HT-29 [4],-2.17
same,fold change (FC),HT-29 [5],<=2
same,fold change (FC),HT-29 [6],12.09
same,fold change (FC),HT-29 [7],<=2
same,GI50,HOP-92,3.09 nM
same,inhibition at 0.05 µM,U2OS [8],0.8%
same,GI50,T47D,3.63 nM
same,GI50,RXF 393,7.12 nM
same,fold change (FC),HT-29 [9],<=2
same,GI50,[10],1.28 nM
same,CC50,[10]; [21],69 nM
same,fold change (FC),HT-29 [11],<=2
same,fold change (FC),HT-29 [12],<=2
same,GI50,SK-MEL-28,5.49 nM
same,GI50,NCI-H23,8.23 nM
same,GI50,UACC-62,3.28 nM
same,fold change (FC),HT-29 [13],7.38
same,inhibition at 0.015 µM,U2OS [14],28%
same,IC50,U2OS [15],50 nM
same,GI50,HT-29 [16],1.04 nM
same,CC50,HT-29 [16]; [21],75.2 nM
same,GI50,NCI/ADR-RES,15.3 nM
same,fold change (FC),HT-29 [17],<=2
same,fold change (FC),HT-29 [18],-3.68
same,fold change (FC),HT-29 [19],3.78
same,fold change (FC),HT-29 [20],<=2
